Measurements as given in EP0151964A2, “New derivatives of alpha-amino-gamma-butyrolactone, method for the preparation thereof and pharmaceutical compositions containing them” (priority 1984, dated 1985).

How the values were obtained:
[1] = Sedation of laboratory animals; type: in vivo; settings: dose of about 50 mg/kg
Description: The compound was administered to laboratory animals at a dose of about 50 mg/kg. The animals were sedated.
A good yield of α-n-pentylcarbonyl-amino-γ-butyrolactone is ob= tained. The compound was administered to laboratory animals at a dose of about 50 mg/kg. The animals were sedated.

[2] = Enhancement of the hypnotic effect of sodium pentobarbital (loss of righting reflex); type: in vivo; settings: mouse
Description: 40 mg, kgof sodium pentobarbital was injected intraperitoneal ly into mice and note was taken of animals losing the righting re= flex and for how long. Other mice received a preliminary treat= ment with PTT-01 at a dosage of 25 and 50 mg/kg, intraperitoneally and thereafter sodium pentobarbital was given.

[3] = Antagonism towards electroshock (maximal electroshock, MES); type: in vivo; settings: mouse; for Number of animals with Clonic convulsions / Number of animals with Tonic convulsions: treated animals in parentheses
Description: Electroshock was produced in mice by applying ear electrodes. Stimulation parameters which could induce the maximal electroshok (MES) were adopted. This was obtained by applying rectangular input shocks for 0.6 seconds. Each input lasted […] and the input frequency was 25/sec. Phenobarbital sodium was used as control substance. […]

[4] = Antagonism towards d-amphetamine: amphetamine-induced hypermobility; type: in vivo, mice; design: reference not given here
Description: (§1) This particular feature of the compound could be deduced from the influence the compound exerted on: (a) d-amphetamine toxicity to mice kept in group, and (b) response time of une avoidance re= flex.
Six groups of 4 mice each were treated with 5 mg/kg of d-am= phetamine sulfate by intraperitoneal administration. Six groups of 4 animals each received the same dose of d-amphetamine sulfate plus 25 mg/kg of PTT-01 intraperitoneally, 15 minutes after d-am= phetamine sulfate; six groups of 4 animals each received saline solution and were used as controls. Spontaneous mobility was ob= served in every animal according to the procedure described herein before. The number of times each animal crossed the light beam throughout the 10 minutes test was noted. As appears from Table 4, the treatment with PTT-01 aid not prevent d-amphetamine from stimulating spontaneous mobility.

[5] = Avoidance reflex (response time in two-chamber conditioning cage); type: in vivo; settings: four conditioned mice, controls 53.3±4.5 sec
Excerpt: as §1
A conditioning cage consisting of two chambers was used, with free access between the chambers. The floor of one compartment was electrified to make it possible to deliver a mild shook. Eice were conditioned by first giving a warning signal and then,af ter a short period of time the shock was applied. Mice learned to leave the electrified compartment after the warning bell soun= ded were then judged to be conditioned. The average period of ti me, in this experiment, for controls (4) within which they leave the compartment was 53.3±4.5 sec. Four conditioned mice were given PTT-01 intraperitoneally(25 mg/kg); time within which they left the compartment was 60.6 + 3.9 sec. Four conditioned mice treat= ed with 50 mg/kg of PTT-C1 left the compartment only after 77.5 ± 2.7 sec.

[6] = Excretion rate of intravenously injected bromosulphonphthalein in bile; type: in vivo; settings: single 50 mg/kg oral dose
Description: (§2) The effect of a single 50 mg/kg oral dose of PTT-01 was deter mined on (a) diuresis in water-loaded rats, (b) choleresis, (c) ex cretion rate of intravenously injected bromosulphonphthalein in bi le, (d) arterial blood pressure.

[7] = Mortality from d-amphetamine in mice kept in group; type: in vivo; settings: eight grouped mice, same amount (25 mg/kg) i.p. 10 minutes before 10 mg/kg d-amphetamine sulfate i.p.; all eight controls died
Description: as §1
However, PTT-01 reduced mortality from d-amphetamine. The same amount of PTT-01 was injected intraperitoneally. Then, 10 minutes later, an intraperitoneal injection of 10 mg/kg of d-amphe tamine sulfate was administered. Eight animals were used in this test and kept in a 25 x 20 x 14 om cage in an air-conditioned room (20°C, 6C,- humidity). […]

[8] = Sleep in cats conditioned to sleep for 8 hours; type: in vivo; settings: 25 and 35 mg/kg
[9] = Subacute toxicity in animals; type: in vivo; settings: 8 rats, 50 mg/kg daily for 6 consecutive days
Description: Accor= dingly, 8 rats were given 50 mg/kg daily for 6 consecutive days.

[10] = Electrode recording in the unrestrained cat; type: in vivo; settings: permanent electrodes, 50 or 100 mg/kg
[11] = Influence on the electromyogram, rabbit with cortical electrodes; type: in vivo; settings: electrodes implanted in cerebral cortex, 50 mg/kg intraperitoneal, similar to 30 mg/kg intravenous phenobarbital sodium
Description: The effect was similar to the effect caused by 30 mg/kg of intravenous phenobarbital sodium.

Arterial blood pressure = type: in vivo; settings: single 50 mg/kg oral dose
Description: as §2

[12] = Spontaneous mobility (interruptions of a light beam in 10 minutes); type: in vivo; settings: mice, controls fell to 71.4%
Description: Several groups of 4 mice each were placed in an apparatus de signed to provide a measure of spontaneous mobility by counting the number of interruptions of a light beam for a period of 10 mi= nutes. After preliminary measurement of mobility, animals were injected with PTT-01 (25 and 50 mg/kg) intraperitoneally. Con= trols received saline solution. Then minutes thereafter the mea= surement of mobility was repeated. Five groups of mice were used as controls and 6 other groups were treated with varying doses of PTT-01.

[13] = Acute toxicity in animals; type: in vivo, rats ( Wistar-Morini Strain); settings: for LD50: aqueous 1% suspension of tragacanth gum
Description: PTT-01 was administered to adult rats ( Wistar-Morini Strain) of both sexes after fasting overnight. It was administered in an aqueous 1% suspension of tragacanth gum orally by gastric probe or intraperitoneally.

Choleresis = type: in vivo; settings: single 50 mg/kg oral dose
Description: as §2

[14] = Diuresis in water-loaded rats; type: in vivo
[15] = Antagonism towards strychnine: protection from death caused by hypodermic injection; type: in vivo; settings: mouse, single oral 50 mg/kg dose, 1.2 mg/kg strichnine sulfate, groups of six
Description: (§3) This type of antagonism was evaluated in the mouse as follows: (1) protection from death caused by a hypodermic injection of strychnine; (2) evaluation of the LD50 of strychnine both in mice treated and untreated with PTT-01 and (3) influence on the time re quired to cause animals to die by slow intravenous perfusion of strychnine.
Groups of six mice were used. Results are given in Ta= ble 5.

Rotating bar test = type: in vivo; settings: trained mice, group of five
Description: Mice were trained to remain on a rotating bar for at least 3 minutes. A group of five of the trained mice were given an intra peritoneal injection of 25 mg/kg of PTT-01 in a 1% suspension of tragacanth gum. Another group of five mice were given an intra= peritoneal injection of 50 mg/kg of PTT-01 in a 1% suspension of tragacanth gum. All control animals stayed on the bar for 3 mi= nutes.

[16] = Antagonism towards strychnine: time to death under slow intravenous infusion; type: in vivo; settings: mice; for mean infusion time to cause death: infusion rate 0.25 ml/min
Description: as §3
(3) continuous intravenous infusion at constant rate (0.4 ml/min) of a strychnine sulfate solution (26.66 mg/l) was carried out by injection in a tail vein in mice until they died. One group of aninals received 50 mg/kg of PTT-01 as preliminary treatment 15 mi nutes before the beginning of the infusion. The mean infusion ti me to cause six controls to die was 134 ± 3.2 seconds (mean + SE). The mean infusion time required to obtain the same effect in animals pretreated with PTT-01 was 210 ± 6.1 seconds.
In another experiment the infusion rate of strychnine was low ered to 0.25 ml/min. Under this conditions, the mean infusion ti me was 246 ± 3.1 seconds in the case of controls (six animals) and 338 ± 24.3 seoondss in treated animals.
When the above mentioned infusion rate was maintained, while redu= cine the amount of PTT-01 to 25 mg/kg, the mean infusion time was 260 + 13.4 seconds in controls and 360 + 21.2 seconds in the treat ed animals.

[17] = 40 mg/kg i.p. 10 minutes before electroshock
[18] = 25 mg/kg i.p. 10 minutes before electroshock
[19] = I 25 mg/kg + II 40 mg/kg intraperitoneally
[20] = I 50 mg/kg + II 40 mg/kg intraperitoneally

## CC(C)CC(=O)NC1CCOC1=O (stereo not drawn) [Example 2, α-isobutylcarbonyl-amino-γ-butyrolactone]
[1]
  sedation: sedated

## CCCCCC(=O)NC1CCOC1=O (stereo not drawn) [Example 3, α-n-pentylcarbonyl-amino-γ-butyrolactone]
[1]
  sedation: sedated

## CCCC(C)C1(CC)C(=O)NC(=O)NC1=O (stereo not shown) [II, sodium pentobarbital, reference compound]
[2]; II 40 mg/kg intraperitoneally alone
  Animals under hypnosis/ treated: 3/4
[2]; II 40 mg/kg intraperitoneally alone, zero assigned to animals not losing the righting reflex
  Duration of hypnosis in minutes (m± SE): 3.25 ± 3.4 min

## CCC1(c2ccccc2)C(=O)NC(=O)NC1=O [Phenobarbital Na, Phenobarbital sodium, reference compound]
[3]; [17]
  Number of animals Dead: 0/8
  Number of animals with Clonic convulsions: 8 (8)
  Number of animals with Tonic convulsions: 0 (8)

## C[C@H](N)Cc1ccccc1 [d-amphetamine, reference compound]
[4]; mouse, in vivo
  Mean number of crossings (± SE) in 10 minutes: 657 ± 59

## α-n-butylcarbonyl-amino-γ-butyrolactone [PTT-01]
[5]; 25 mg/kg intraperitoneally
  time within which they left the compartment: 60.6 + 3.9 sec
[5]; 50 mg/kg
  time within which they left the compartment: 77.5 ± 2.7 s
[6]
  excretion rate of intravenously injected bromosulphonphthalein in bile: No treatment caused any signi= ficant change
[4]; mice, d-amphetamine 5 mg/kg i.p. + 25 mg/kg i.p. given 15 minutes after d-amphetamine
  Mean number of crossings (± SE) in 10 minutes: 836 ± 100
[7]
  animals died: 5 of the eight
[8]
  number of cases of REM sleep: reduced the number of cases of REM sleep
  total sleeping time: did not modify the total sleeping time
[9]
  sedative effect or other abnormal symptoms: No sedative effect or other abnormal symptoms were observed
[3]; [18]
  Number of animals Dead: 0/8
  Number of animals with Clonic convulsions: 8 (8)
  Number of animals with Tonic convulsions: 0 (8)
[10]
  sedation and electromyographic alterations: sedation oc= curred without electromyographic alterations
[11]
  electromyographic tracing: tracing to become flat
Arterial blood pressure
  arterial blood pressure: No treatment caused any signi= ficant change
[12]; 25 mg/kg intraperitoneally
  mobility, % of the base-line values: 31.9%
[12]; 50 mg/kg intraperitoneally
  mobility, % of the base-line values: 23.1%
[13]; 50 mg/kg by oral route
  effect in rats: did not cause any particular effect
[13]; 100 mg/kg by oral route
  effect in rats: mild sedative effect
[13]; rats, acute toxicity doses, animal returned to normal
  duration of the sedative and hypnotic effects: not long lasting
[13]; rats, from the lowest intraperitoneal dose
  sedative effect: the sedative effect was obtained
[13]; rats, highest oral dose
  loss of the righting reflex: not cause the loss of the righting reflex
  sedative effect: produced a sedative effect
[13]; rats, intraperitoneal, 1 g/kg
  loss of the righting reflex: the loss of the righting reflex occurred
[13]; rats, intraperitoneally
  LD50: more than 2 g/kg
[13]; rats, orally by gastric probe
  LD50: more than 2 g/kg
Choleresis
  choleresis: No treatment caused any signi= ficant change
[14]; single 50 mg/kg oral dose
  diuresis in water-loaded rats: No treatment caused any signi= ficant change
[14]; water-loaded rats, daily oral dose of 50 mg/kg for five subsequent days
  rate of urine excretion: slowed
[15]
  protection against the lethal effect of strichnine sulfate: protected all the animals
Rotating bar test; 25 mg/kg intraperitoneal
  mice staying on the bar for 3 minutes: two out of the five
Rotating bar test; 50 mg/kg intraperitoneal
  mice staying on the bar for 3 minutes: none
[2]; [19]
  Animals under hypnosis/ treated: 4/4
  Duration of hypnosis in minutes (m± SE): 52.5 ± 13 min
[2]; [20]
  Animals under hypnosis/ treated: 4/4
  Duration of hypnosis in minutes (m± SE): 75.2 ± 21.6 min
[16]; 25 mg/kg, controls 260 + 13.4
  mean infusion time to cause death: 360 + 21.2 seconds
[16]; 50 mg/kg 15 minutes before infusion, strychnine sulfate 26.66 mg/l at 0.4 ml/min, controls 134 ± 3.2
  mean infusion time to cause death (mean + SE): 210 ± 6.1 s
[16]; 50 mg/kg, controls 246 ± 3.1
  mean infusion time to cause death: 338 ± 24.3 s
